Experimental data reported in US7683211B2, “Jasmonate derivative compounds pharmaceutical compounds and methods of use thereof” (Ramot at Tel-Aviv University Ltd., priority 2003, dated 2010).
Where two headings read alike, the source gives them in different places.

How the values were obtained:
[1] = tested on: lymphomas in mice; conditions: from U.S. Pat. No. 6,469,061; cited from earlier work
[2] = tested on: Molt-4 lymphoblastic leukemia cells; test: CellTiter 96 MTS cytotoxicity assay, Molt-4 leukemia cells; type: cell-based, human; conditions: for IC50: Homo sapiens, 24 h, Molt-4 at 2.5×10^4/ml
Description: (§1) Measurement of reduction in the number of living cells was determined by, the CellTiter 96 Aqueous Non-Radioactive Cell Proliferation Assay (Promega, Madison Wis.). Upon completion of a given experiment, MTS (a tetrazolium compound) at 333 μg/ml+phenazine methosulfate (at 25 μM) was added to each well of the 96-well plate for 1 hour at 37° C. This allowed for development of a color reaction in which dehydrogenases reduce the MTS in metabolically active cells. Since the cells were not washed before the addition of MTS, there were no potentially loosely adherent or non-adherent cells that could have been problematic. Soluble MTS formazan product was measured at a wavelength of 490 nm using a CERES 900 HDI ELISA reader (Bio-Tek Instruments, Inc, Highland Park, Vt.), Optical density is directly proportional to the number of living cells in culture. Cytotoxicity (%) was calculated in the following way: [(OD of control cells−OD of drug-treated cells)/OD of control cells]×100.
Molt-4 lymphoblastic leukemia cells (at 1.5×10^4/well), 3LL lung carcinoma cells (at 4×10^3/well), B16 melanoma cells (at 4×10^3/well), or HCT116 colon carcinoma cells (at 4×10^3/well) were seeded in 96-well plates and methyl jasmonate (MJ) or MJDB at 0.5 mM were added for 1 day. Optical density representing viable cells was determined by the CellTiter 96 Aqueous Non-Radioactive Cell Proliferation Assay (described above). Cytotoxicity was calculated as the % of control untreated cultures, mean±SD. n=3.
(§2) The optical density that represented viable cells was determined by the CellTiter 96 Aqueous Non-Radioactive Cell Proliferation Assay (Promega, Madison, Wis.), as described above. Cytotoxicity was calculated as % of control untreated cultures, mean±SE. n=3.
Biological assays were performed with a 1:1 mixture of the aforementioned tetra bromo isomers. More specifically, Molt-4 leukemic cells (at 2.5×10^4/ml) were incubated for one day in 96-well plates in the presence of different concentrations of either MJ or MJTB. The optical density that represented viable cells was determined by the CellTiter 96 Aqueous Non-Radioactive Cell Proliferation Assay (Promega, Madison, Wis.) as described above. Cytotoxicity is calculated as % of control untreated cultures, mean±SE. n=3.
Molt-4 (leukemia) cells (at 2.5×10^4/ml), and normal peripheral blood lymphocytes (PBL, at 2×10^5/ml) were incubated in 96-well plates for one day in the presence of different concentrations of MJTB. PBL were pre-incubated with 0.8 μg/ml phytohaemagglutinin +5 ng/ml TPA for 48 hours, to induce entrance into the cell cycle. These cells proliferate and therefore are similar in that respect to cancer cells, making the comparison more valid. The optical density that represented viable cells was determined by the CellTiter 96 Aqueous Non-Radioactive Cell Proliferation Assay (Promega, Madison, Wis.), as described above.
Molt4 leukemic cells (at 1.5×10^4/ml) were incubated for 1 day in the presence of different concentrations of halogenated derivatives of MJ. Specifically, these derivatives were MJS72f5 (one of R6 and R7 is iodo and the other is methoxy), MJS99 (R6 and R7 are each fluoro) and NJ-63 (one of R6 and R7 is bromo and the other is hydroxyl). The optical density that represented viable cells was determined by the CellTiter 96 Aqueous Non-Radioactive Cell Proliferation Assay (Promega, Madison, Wis.), described above. […] Another derivative.

[3] = tested on: peripheral blood lymphocytes from healthy donors; test: CellTiter 96 MTS cytotoxicity assay, lymphocytes from healthy donors; type: cell-based, human; conditions: 1 day, several concentrations, FIG. 1
Description: as §1
(§3) In order to test the toxicity of MJDB towards human leukemia cells, peripheral blood lymphocytes from chronic lymphocytic leukemia (CLL) patients were harvested. […] The optical density that represented viable cells was determined by the CellTiter 96 Aqueous Non-Radioactive Cell Proliferation Assay (Promega, Madison, Wis.); an assay in which viable cells produce a colored product, as described above. […]

[4] = tested on: 29M4.1 B lymphoma cells expressing wild type p53; test: CellTiter 96 MTS cytotoxicity assay, 29M4.1 B lymphoma clone with wild type p53; type: cell-based; conditions: 1 day, several concentrations, FIG. 3
Description: as §1
(§4) A system of two B lymphoma clones originating from the same cell line (29M4.1) was used. These clones differed solely in the expression of wild type versus mutant p53. […] The optical density that represented viable cells was determined by the CellTiter 96 Aqueous Non-Radioactive Cell Proliferation Assay (Promega, Madison, Wis.).

[5] = tested on: 3LL lung carcinoma cells; test: CellTiter 96 MTS cytotoxicity assay, 3LL lung carcinoma cells; type: cell-based, mouse; conditions: 0.5 mM, 1 day, FIG. 2, P<0.05
Description: as §1
(§5) Molt-4 lymphoblastic leukemia cells (at 1.5×10^4/well), 3LL lung carcinoma cells (at 4×10^3/well), B16 melanoma cells (at 4×10^3/well), or HCT116 colon carcinoma cells (at 4×10^3/well) were seeded in 96-well plates and methyl jasmonate (MJ) or MJDB at 0.5 mM were added for 1 day. […] Cytotoxicity was calculated as the % of control untreated cultures, mean±SD. n=3.

[6] = tested on: B16 melanoma cells; test: CellTiter 96 MTS cytotoxicity assay, B16 melanoma cells; type: cell-based
Description: as §1
Molt-4 lymphoblastic leukemia cells (at 1.5×10^4/well), 3LL lung carcinoma cells (at 4×10^3/well), B16 melanoma cells (at 4×10^3/well), or HCT116 colon carcinoma cells (at 4×10^3/well) were seeded in 96-well plates and methyl jasmonate (MJ) or MJDB at 0.5 mM were added for 1 day. […] Cytotoxicity was calculated as the % of control untreated cultures, mean±SD. n=3. […]

[7] = tested on: 29M4.1 B lymphoma cells expressing mutant p53; test: CellTiter 96 MTS cytotoxicity assay, 29M4.1 B lymphoma clone with mutant p53; type: cell-based; conditions: 1 day, several concentrations, FIG. 3
Description: as §1, §4

[8] = tested on: ATP levels in Molt-4 leukemia cells; test: ATP determination assay (CellTiter-Glo) in Molt-4 cells; type: cell-based, human; conditions: MJDB at 1 mM (MJ at 3 mM) for 10, 30 or 60 minutes at 37° C., FIG. 4
Description: An ATP determination assay was used to assess the effect of MJDB on ATP levels in cancer cells. More specifically, Molt-4 cells (at 1×10^4/well) were seeded in 96-well opaque-walled plates and MJ at 3 mM or MJDB at 1 mM were added for 10, 30 or 60 minutes at 37° C. Untreated cells incubated in culture medium were used as control. ATT levels were determined by the CellTiter-Glo™ Luminescent Cell Viability Assay; an assay in which cells produce a lumineascence signal that is equivalent to the ATP concentration in the cell. ATP depletion is calculated as % of control untreated cultures, mean±SD. n=3.

[9] = tested on: peripheral blood lymphocytes from chronic lymphocytic leukemia (CLL) patients; test: CellTiter 96 MTS cytotoxicity assay, CLL patient lymphocytes; type: cell-based, human; conditions: 1 day, several concentrations, FIG. 1; P<0.05 versus healthy donors
Description: as §1, §3

[10] = tested on: HCT116 colon carcinoma cells; test: CellTiter 96 MTS cytotoxicity assay, HCT116 colon carcinoma cells; type: cell-based, human; conditions: 0.5 mM, 1 day, FIG. 2, P<0.05
Description: as §1, §5

[11] = tested on: normal peripheral blood lymphocytes (PBL); test: CellTiter 96 MTS cytotoxicity assay, stimulated normal PBL; type: cell-based; conditions: PBL versus Molt-4
Description: as §1
(§6) Molt-4 (leukemia) cells (at 2.5×10^4/ml), and normal peripheral blood lymphocytes (PBL, at 2×10^5/ml) were incubated in 96-well plates for one day in the presence of different concentrations of MJTB. […] The optical density that represented viable cells was determined by the CellTiter 96 Aqueous Non-Radioactive Cell Proliferation Assay (Promega, Madison, Wis.), as described above.

[12] = as above; type: cell-based; conditions: PBL at 2×10^5/ml, pre-incubated with phytohaemagglutinin + TPA for 48 hours, one day with compound
Description: as §1, §6

[13] = tested on: D122 (lung carcinoma) cells; test: CellTiter 96 MTS cytotoxicity assay, D122 lung carcinoma cells; type: cell-based, human; conditions: Mus musculus, 24 h; D122 at 5×10^3/ml, one day incubation, MTS readout
Description: as §1, §2

[14] = tested on: B16MDR (melanoma exhibiting multidrug resistance) cells; test: CellTiter 96 MTS cytotoxicity assay, B16MDR melanoma cells; type: cell-based, human; conditions: Mus musculus, 24 h; B16MDR at 2×10^3/ml, one day incubation, MTS readout; read-out: IC50 (cytotoxicity), B16 MDR
Description: as §1, §2

[15] = one day, MJTB as 1:1 mixture of tetra bromo isomers (Example 6), read-out: IC50 (concentration exhibiting 50% cytotoxicity), Molt-4, MJTB versus MJ

Row | SMILES | prevention of development of lymphomas in mice [1] | IC50 [2, 15] [µM] | cytotoxicity towards lymphocytes from healthy donors [3] | cytotoxicity towards B lymphoma cells expressing wild type p53 [4] | cytotoxic effect compared to methyl jasmonate, 3LL [5] | cytotoxic effect compared to methyl jasmonate, B16 ([6]; 0.5 mM, 1 day, FIG. 2, P<0.05) | cytotoxicity towards B lymphoma cells expressing mutant p53 [7] | cytotoxic effect compared to methyl jasmonate, Molt-4 ([2]; 0.5 mM, 1 day, FIG. 2, P<0.05) | ATP depletion [8] | cytotoxicity towards lymphocytes from CLL patients [9] | cytotoxic effect compared to methyl jasmonate, HCT116 [10] | IC50 ([6]; 24 h, B16 at 2×10^3/ml, one day incubation, MTS readout) [µM] | IC50 ([2]; one day incubation, MTS readout (Example 5), read-out: IC50 (cytotoxicity), Molt-4) [µM] | IC50 of MJTB smaller than that of MJ (fold) ([2]; Molt-4 cells, one day) | IC50 for normal peripheral blood lymphocytes relative to leukemic cells [11] | IC50 at 1 day [12] [µM] | IC50 [13] [µM] | IC50 [14] [µM]
1 | CC/C=C\CC1C(=O)CCC1CC(=O)OC (stereo not shown) [MJ, methyl jasmonate, reference compound] | effective in preventing development of lymphomas in mice | 500 |  |  |  |  |  |  |  |  |  |  |  |  |  |  |  | 
2 | CCC(Br)C(Br)CC1C(=O)CCC1CC(=O)OC (stereo not shown) [MJDB, methyl jasmonate di-bromide] |  |  | cytotoxicity is minimal | equally cytotoxic | highly superior in its cytotoxic effect | highly superior in its cytotoxic effect | equally cytotoxic | highly superior in its cytotoxic effect | rapid and strong ATP depletion | highly and selectively cytotoxic | highly superior in its cytotoxic effect |  |  |  |  |  |  | 
3 | CCC(Br)C(Br)C[C@@]1(Br)C(=O)[C@@H](Br)CC1CC(=O)OC (stereo partly shown) [MJTB, methyl jasmonate tetra-bromide] |  | 8 |  |  |  |  |  |  |  |  |  | 80 | 8 | about 60 times | larger than that for leukemic cells by more than an order of magnitude | 250 | 50 | 80
